Data from patent publication US8618286B2, “Benzoxazines, benzothiazines, and related compounds having NOS inhibitory activity” (NeurAxon, Inc., priority 2008, dated 2013).
pIC50: −log10 of the molar value. Structures can show the parent of a compound that is named as a salt.

Experiments:
Assay type in all cases: biochemical
[1] = target: Nitric oxide synthase (endothelial, human recombinant) eNOS (Homo sapiens (Human), UniProt P29474); assay: Human eNOS enzyme assay ([3H]-L-arginine to L-citrulline conversion)
Procedure: (§1) nNOS (Human), eNOS (Human) and iNOS (Human) Enzyme Assay
(§2) Primary stock solutions of test compounds at a concentration of 6 mM were prepared from the 2 to 5 mg powder. The primary stock solutions of each test compound were prepared freshly in distilled water on the day of study to obtain a final concentration of 6 mM. For determination of IC50 values, 12 test compound concentrations were prepared as 3-fold serial dilutions. Concentration range of test compound utilized for nNOS were 0.001 to 300 μM and for eNOS were 0.003 to 1000 μM. The vehicle of the test compound or inhibitor was used as blank control. For non-specific activity, 100 μM L-NMMA was used. Runs using the IC50 concentration of L-NAME were done in parallel as controls.
(§3) All incubations are performed in duplicate
(§4) The reaction mixture was prepared on ice by adding the following components with a micropipette to a polypropylene microcentrifuge tube: • 10 μL of test compound, inhibitor or control (vehicle or L-NMMA) solution; • 25 μL of Reaction Buffer {25 mM Tris-HCl, 0.6 μM BH4, 0.2 μM FMN, 0.2 μM FAD}; • 5 μL of 10 mM NADPH solution {1 mM} (freshly prepared in 10 mM Tris-HCl (pH 7.4); • 5 μL of 6 mM CaCl2 {600 W}; • 5 μL of 1 mM Calmodulin {100 W}; and • 5 μL of 0.02 μg/μL nNOS or 0.12 μg/μL eNOS.
(§5) The above reaction mixture was pre-incubated at room temperature for 15 mins.
(§6) The reaction was started by the addition of the substrate (in 5 μL containing 1 μCi of [^3H]-L-Arginine+2.5 μM of unlabeled L-Arginine) to the reaction mixture. Total reaction volume is 60 μL.
(§7) The reaction was mixed using a vortex mixer and incubate the above reaction mixture at 37° C. in an incubator for 30 minutes.
(§8) To stop the reaction, 400 μL of ice-cold Stop Buffer was added at the end of the incubation period.
(§9) The reaction was then mixed using a vortex mixer, and the reaction samples were transferred to spin cups, which were centrifuged using a microcentrifuge, at 13,000 rpm for 30 sec. at room temperature.
(§10) The spin cups were removed from the holder, 450 μL of eluate (containing the unbound L-citrulline) were transferred to scintillation vials. 3 mL of scintillation fluid were added and the radioactivity was quantified in a liquid scintillation counter.
(§11) Data was analyzed using a Sigmoidal dose-response (variable slope) curve to determine the IC50 value of the test compound. Y=Bottom+(Top−Bottom)/(1+10^((Log IC50−X)*Hill Slope))

[2] = target: Recombinant human inducible NOS (iNOS) (Homo sapiens (Human), UniProt P35228); assay: Human iNOS enzyme assay (Protocol 1 or Protocol 2, radiometric)
Procedure: The human iNOS assay was carried by either one of the two protocols as described herein:
Recombinant human inducible NOS (iNOS) was produced in Baculovirus-infected Sf9 cells (ALEXIS). In a radiometric method, NO synthase activity was determined by measuring the conversion of [^3H]L-arginine to [^3H]L-citrulline. To measure iNOS, 10 μL of enzyme was added to 100 μL of 100 mM HEPES, pH=7.4, containing 1 mM CaCl2, 1 mM EDTA, 1 mM dithiothreitol, 1 μM FMN, 1 μM FAD, 10 μM tetrahydrobiopterin, 120 μM NADPH, and 100 nM CaM.
To measure enzyme inhibition, a 15 μL solution of a test substance was added to the enzyme assay solution, followed by a pre-incubation time of 15 min at RT. The reaction was initiated by addition of 20 μL L-arginine containing 0.25 μCi of [^3H] arginine/mL and 24 μM L-arginine. The total volume of the reaction mixture was 150 μL in every well. The reactions were carried out at 37° C. for 45 minutes, The reaction was stopped by adding 20 μL of ice-cold buffer containing 100 mM HEPES, 3 mM EGTA, 3 mM EDTA, pH=5.5. [^3H]L-citrulline was separated by DOWEX (ion-exchange resin DOWEX 50 W×8-400, SIGMA) and the DOWEX was removed by spinning at 12,000 g for 10 min in the centrifuge. An aliquot (70 μL) of the supernatant was added to 100 μL of scintillation fluid, and the samples were counted in a liquid scintillation counter (1450 Microbeta Jet, Wallac). Specific NOS activity was reported as the difference between the activity recovered from the test solution and that observed in a control sample containing 240 mM of the inhibitor L-NMMA. All assays were performed at least in duplicate. Standard deviations are 10% or less.
Primary stock solutions of each test compound were prepared in distilled water on the day of study to obtain a final concentration of 6 mM. For the determination of IC50 values, 11 test compound concentrations were prepared as 3-fold serial dilutions. Test compounds were tested in the iNOS assay at a concentration of 1000 μM to 0.0169 μM. The vehicle of the test compound or inhibitor, distilled water, was used as blank control. For non-specific activity, 100 μM L-NMMA was run in parallel as a control.
All incubations were performed in duplicate
The reaction mixture was prepared on ice by the addition of the following components to the appropriate well of a 1.0 mL 96-well polypropylene plate:
10 μL of test compound, reference inhibitor, or control (vehicle or L-NMMA) solution;
25 μL of Reaction Buffer (50 mM Tris-HCl, 6 μM BH4, 2 μM FMN, 2 μM FAD);
5 μL of 10 mM NADPH solution;
5 μL of 1 μM Calmodulin; and
The reaction mixture was pre-incubated at room temperature for 15 minutes. Following this pre-incubation, the reaction was initiated by the addition of 5 μL of the substrate L-arginine (1 μCi of [^3H]-L-Arginine+30 μM of unlabeled L-Arginine) to the reaction mixture. The total reaction volume was 60 μL. The assay plate containing the reaction mixtures was sealed and incubated at 37° C. for 30 minutes. At the end of this incubation period, 400 μL of ice-cold Stop Buffer (the EDTA in the Stop Buffer chelates all of the available calcium) was added to each well to stop the reaction. 100 μL of equilibrated resin pH 5.5 was added to each of the assay wells. The reaction samples were vortexed and transferred to spin cups, after-which they were centrifuged at 13,000 rpm for 30 sec. The spin cups were removed from the holder and […] (containing the unbound L-citrulline) were added to the appropriate wells of a 96-well liquid scintillation plate. 175 μL of scintillation fluid were also added to each well. The plate was sealed, and radioactivity was quantitated using a Microbeta liquid scintillation counter.
Data were analyzed using a Sigmoidal dose-response (variable slope) curve to determine the IC50 value of the test compound. Y=Bottom+(Top−Bottom)/(1+10^((Log IC50−X)*Hill Slope))

[3] = target: Nitric oxide synthase (neuronal, human recombinant) nNOS (Homo sapiens (Human), UniProt P29475); assay: Human nNOS enzyme assay ([3H]-L-arginine to L-citrulline conversion); conditions: for Selectivity eNOS/nNOS: ratio of human eNOS IC50 to human nNOS IC50; for pIC50: recombinant human nNOS
Procedure: as §1, §2, §3, §4, §5, §6, §7, §8, §9, §10, §11

SMILES	pIC50 [1]	pIC50 [2]	Selectivity eNOS/nNOS [3]	pIC50 [3]
CCN(CC)CCN1CCSc2cc(NC(=N)c3cccs3)ccc21 [Compound 15, N-(4-(2-(Diethylamino)ethyl)-3,4-dihydro-2H-benzo[b][1,4]thiazin-7-yl)thiophene-2-carboximidamide]	4.70	4.39	134	6.82
N=C(Nc1ccc2c(c1)SCCN2CCNCCO)c1cccs1 [Compound 16, N-(4-(2-(2-hydroxyethylamino)ethyl)-3,4-dihydro-2H-benzo[b][1,4]thiazin-7-yl)thiophene-2-carboximidamide dihydrochloride]	5.15	4.23	205	7.47
CN(CCN1CCSc2cc(NC(=N)c3cccs3)ccc21)CC(=O)O [Compound 17, 2-(methyl(2-(7-(thiophene-2-carboximidamido)-2H-benzo[b][1,4]thiazin-4(3H)-yl)ethyl)amino)acetic acid dihydrochloride]	4.96	3.62	9.3	5.94
N=C(Nc1ccc2c(c1)SCCN2CCN1CCC[C@H]1C(=O)O)c1cccs1 [Compound 18, (S)-1-(2-(7-(Thiophene-2-carboximidamido)-2H-benzo[b][1,4]thiazin-4(3H)-yl)ethyl)pyrrolidine-2-carboxylic acid dihydrochloride]	4.90	3.47	19	6.18
CN(C)CCN1CCSc2cc(NC(=N)c3ccco3)ccc21 [Compound 19, N-(4-(2-(dimethylamino)ethyl)-3,4-dihydro-2H-benzo[b][1,4]thiazin-7-yl)furan-2-carboximidamide]	4.02	3.87	676	6.85
CNCCN1CCSc2cc(NC(=N)c3ccco3)ccc21 [Compound 20, N-(4-(2-(methylamino)ethyl)-3,4-dihydro-2H-benzo[b][1,4]thiazin-7-yl)furan-2-carboximidamide]	4.33	3.57	290	6.80
N=C(Nc1ccc2c(c1)SCCN2CCCN1CCCC1)c1cccs1 [Compound 21, N-(4-(3-(pyrrolidin-1-yl)propyl)-3,4-dihydro-2H-benzo[b][1,4]thiazin-7-yl)thiophene-2-carboximidamide]	5.00	4.30	71.4	6.85
CN(C)CCCN1CCSc2cc(NC(=N)c3cccs3)ccc21 [Compound 22, N-(4-(3-(Dimethylamino)propyl)-3,4-dihydro-2H-benzo[b][1,4]thiazin-7-yl)thiophene-2-carboximidamide]	4.92	3.94	864	7.85
CNCCCN1CCSc2cc(NC(=N)c3cccs3)ccc21 [Compound 23, N-(4-(3-(methylamino)propyl)-3,4-dihydro-2H-benzo[b][1,4]thiazin-7-yl)thiophene-2-carboximidamide]	4.73	3.76	664	7.55
CCNCCN1CCSc2ccc(NC(=N)c3cccs3)cc21 [Compound 24, N-(4-(2-(ethylamino)ethyl)-3,4-dihydro-2H-benzo[b][1,4]thiazin-6-yl)thiophene-2-carboximidamide]	5.35	4.08	89	7.30
N=C(Nc1ccc2c(c1)N(CCN1CCCC1)CCS2)c1cccs1 [Compound 25, N-(4-(2-(pyrrolidin-1-yl)ethyl)-3,4-dihydro-2H-benzo[b][1,4]thiazin-6-yl)thiophene-2-carboximidamide]	4.74	4.36	90.5	6.70
N=C(Nc1ccc2c(c1)N(CCNCCO)CCS2)c1cccs1 [Compound 26, N-(4-(2-(2-hydroxyethylamino)ethyl)-3,4-dihydro-2H-benzo[b][1,4]thiazin-6-yl)thiophene-2-carboximidamide]	5.07	4.22	56.5	6.82
CN(C)CCN1CCSc2ccc(NC(=N)c3cccs3)cc21 [Compound 27, N-(4-(2-(dimethylamino)ethyl)-3,4-dihydro-2H-benzo[b][1,4]thiazin-6-yl)thiophene-2-carboximidamide]	4.46	4.18	268.4	6.89
CNCCN1CCSc2ccc(NC(=N)c3cccs3)cc21 [Compound 28, N-(4-(2-(methylamino)ethyl)-3,4-dihydro-2H-benzo[b][1,4]thiazin-6-yl)thiophene-2-carboximidamide]	5.07	3.46	107.2	7.10
N=C(Nc1ccc2c(c1)N(C1CCNCC1)CCS2)c1cccs1 [Compound 29, N-(4-(piperidin-4-yl)-3,4-dihydro-2H-benzo[b][1,4]thiazin-6-yl)thiophene-2-carboximidamide]	4.36	4.11	396	6.96
